Measured values published in PMC9511481 (Journal of Medicinal Chemistry, 2022).
Values joined by “and” are separate entries in the source; they are usually repeats but may differ in a detail not shown here. Equal values may be shown once. Where a name gives a salt, the structure may show the parent alone. Read-outs that look alike come from different tables or passages of the source.

Assays:
[1] = target: T1, 5-HT2AR (Homo sapiens, UniProt P28223); test: cell-based; type: cell-based
T1 construct: expressed in transfected cells; host or cells: HEK 293T (transient transfection)
Target sequence in this assay (P28223 whole entry): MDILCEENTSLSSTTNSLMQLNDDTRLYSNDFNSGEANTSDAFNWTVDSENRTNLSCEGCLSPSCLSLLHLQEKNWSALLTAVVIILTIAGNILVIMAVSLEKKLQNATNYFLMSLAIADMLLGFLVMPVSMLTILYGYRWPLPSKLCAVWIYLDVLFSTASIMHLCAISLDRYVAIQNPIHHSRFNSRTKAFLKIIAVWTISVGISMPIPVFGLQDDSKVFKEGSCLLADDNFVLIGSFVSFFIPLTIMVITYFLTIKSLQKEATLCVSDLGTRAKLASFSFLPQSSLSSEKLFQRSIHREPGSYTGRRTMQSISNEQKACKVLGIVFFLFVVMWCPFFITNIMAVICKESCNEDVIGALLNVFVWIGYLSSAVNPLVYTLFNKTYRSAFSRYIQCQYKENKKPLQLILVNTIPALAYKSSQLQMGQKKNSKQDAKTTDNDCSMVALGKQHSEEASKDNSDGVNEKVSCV

[2] = target: T1, 5-HT2AR; test: cell-based; type: cell-based; details: for Emax: HEK-293T, read-out: β-arr2 Emax (%) [CI]
Target sequence in this assay (P32121 whole entry): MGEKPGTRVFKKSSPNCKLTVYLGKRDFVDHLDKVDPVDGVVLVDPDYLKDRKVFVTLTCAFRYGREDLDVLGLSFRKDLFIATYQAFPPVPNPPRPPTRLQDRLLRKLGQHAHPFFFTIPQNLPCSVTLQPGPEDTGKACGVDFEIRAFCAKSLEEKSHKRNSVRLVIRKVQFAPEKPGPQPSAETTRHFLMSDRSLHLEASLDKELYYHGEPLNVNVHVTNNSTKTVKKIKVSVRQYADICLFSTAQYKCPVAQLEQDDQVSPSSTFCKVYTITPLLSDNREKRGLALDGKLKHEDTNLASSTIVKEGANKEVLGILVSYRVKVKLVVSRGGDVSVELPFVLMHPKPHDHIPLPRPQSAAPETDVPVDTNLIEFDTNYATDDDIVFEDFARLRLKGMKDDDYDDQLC
Target sequence in this assay (P28223 whole entry): as the sequence (P28223 whole entry) above

[3] = target: T2, 5-HT2AR S159A-mutated receptor (Homo sapiens, UniProt P28223, S159A); test: cell-based; type: cell-based; details: for EC50: read-out: β-arr2 EC50 (nM) [CI]
T2 construct: expressed in transfected cells; host or cells: HEK 293T (transient transfection); mutant made by site-directed mutagenesis of 5-HT2AR-LgBiT
Target sequence in this assay (P28223 whole entry S159A): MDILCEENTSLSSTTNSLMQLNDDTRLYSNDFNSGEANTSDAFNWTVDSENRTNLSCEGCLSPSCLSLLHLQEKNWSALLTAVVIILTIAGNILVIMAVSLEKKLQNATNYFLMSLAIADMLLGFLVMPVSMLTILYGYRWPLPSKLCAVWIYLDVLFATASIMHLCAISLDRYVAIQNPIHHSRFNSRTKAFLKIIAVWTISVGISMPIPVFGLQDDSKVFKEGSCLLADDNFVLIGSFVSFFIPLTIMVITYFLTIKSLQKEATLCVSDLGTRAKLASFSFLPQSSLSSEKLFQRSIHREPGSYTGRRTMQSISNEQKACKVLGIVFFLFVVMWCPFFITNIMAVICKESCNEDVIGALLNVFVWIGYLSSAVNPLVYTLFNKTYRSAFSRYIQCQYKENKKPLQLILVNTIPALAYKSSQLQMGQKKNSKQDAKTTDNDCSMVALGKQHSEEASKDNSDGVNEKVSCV
Target sequence in this assay (P32121 whole entry partner): as the sequence (P32121 whole entry) above

[4] = system: 5-HT2AR S159A-mutated receptor; test: Bias factor (βarr2 vs miniGαq recruitment), intrinsic relative activity approach, S159A mutated 5-HT2AR; type: cell-based, human; details: 5-HT2A-S159A; for Alternative β-factor: from the combined EC50 and Emax values; for β-factor: average of three experiments
Experimental: The resulting data were analyzed as described before in more detail.[55] In brief, the obtained time–luminescence profiles are corrected for interwell variability and used for the calculation of the area under the curve (AUC), from which the AUC of the corresponding solvent control is subtracted. Data are then normalized using GraphPad Prism software (San Diego, CA), where the maximal response of the reference agonist is arbitrarily set at 100%. After pooling the data of the individual experiments, the potency and efficacy values are calculated in GraphPad Prism through three parametric nonlinear regression analysis. To quantify the tendency of the measured substances toward preferentially inducing one pathway or the other, bias factors are calculated via the “intrinsic relative activity approach.[56],[57] In this approach, an RAi value is calculated for each substance in each of the measured assays, relative to a reference agonist, using the following formula [drawing 1] The obtained values for the respective pathways are then combined into a bias factor, βi [drawing 2] This formula implies that the value of βi for the reference agonist is 0. A positive bias factor indicates a preference toward the recruitment of βarr2 over miniGαq, compared to the respective reference agonist. A negative bias factor then points to a relative preference toward the recruitment of miniGαq over βarr2. To assess whether the obtained bias factors are statistically significant from 0, a Kruskal–Wallis analysis (which is the nonparametric counterpart of one-way analysis of variance (ANOVA), selected a priori to avoid presumptuous conclusions) with post hoc Dunn’s multiple comparison was carried out in GraphPad Prism. To qualitatively visualize the possible preference of a certain substance towards recruiting either one cytosolic protein or the other, bias plots were generated via GraphPad Prism. To this end, the normalized AUC values obtained in the βarr2 assay are plotted on the x-axis, and those obtained in the miniGαq assay are plotted on the y-axis. On each plot, both the respective reference agonist and one substance of interest are plotted, and a curve is fitted through the centered second-order (quadratic) polynomial fitting.[58]

[5] = target: T1, 5-HT2AR; type: cell-based
Target sequence in this assay (P28223 whole entry): as the sequence (P28223 whole entry) above

[6] = system: 5-HT2AR S159A-mutated receptor; test: cell-based; type: cell-based, human
[7] = target: T2, 5-HT2AR S159A-mutated receptor; test: cell-based; type: cell-based; details: for Emax: read-out: miniGαq Emax (%) [CI]
Target sequence in this assay (P28223 whole entry S159A): as the sequence (P28223 whole entry S159A) above

[8] = system: 5-HT2AR; details: 5-HT2AR S159A vs WT; ref 52 (Kim et al.); cited from earlier work
[9] = target: T1, 5-HT2AR; set-up: method as in PMID 32998000; details: wild-type 5-HT2AR; previously reported values; cited from earlier work
Target sequence in this assay (P28223 whole entry): as the sequence (P28223 whole entry) above

[10] = target: T1, 5-HT2AR; set-up: method as in PMID 32998000; details: wild-type 5-HT2AR; previously reported values; cited from earlier work; remark: listed apart in the source
Target sequence in this assay (P32121 whole entry): as the sequence (P32121 whole entry) above
Target sequence in this assay (P28223 whole entry): as the sequence (P28223 whole entry) above

[11] = system: 5-HT2AR over 5-HT2CR; details: cited from earlier work
[12] = system: 5-HT2AR; set-up: method as in PMID 35084960; details: partial agonist with bias toward βarr2 over Gαq-γ9, reference 5-HT; cited from earlier work
[13] = read-out: miniGαq EC50 (nM) [CI]
[14] = read-out: β-arr2 EC50 (nM) [CI]

| SMILES | EC50 [1, 13] | β-arr2 Emax (%) [CI] [2] | Emax [2] | EC50 [2, 14] | Reduction of agonist potency at 5-HT2AR S159A compared to WT, βarr2 recruitment assay [3] | β-arr2 Emax (%) [CI] [3] | EC50 [3] | Alternative β-factor ([4]; referenced with 5-HT) | Alternative β-factor ([4]; referenced with LSD) | Reduction of agonist potency at 5-HT2AR S159A compared to WT, miniGαq recruitment assay [6] | EC50 [7, 13] | also measured |
| --- | --- | --- | --- | --- | --- | --- | --- | --- | --- | --- | --- | --- |
| COc1cc(CCNC2COc3ccccc32)c(OC)cc1Br (racemic) [(±)-4c, (±)-N-(4-Bromo-2,5-dimethoxyphenethyl)-2,3-dihydrobenzofuran-3-amine Hydrochloride] | 23 nM | 85.5% | 96.6% | – | – | – | – | – | – | – | – | EC50 [1]: 24.5 nM; EC50 ([2]; β-arr2 EC50 (nM) [CI]): 28.6 nM and 28.7 nM |
| COc1cc(CCNC2CCOc3ccccc32)c(OC)cc1Br (racemic) [(±)-4d, (±)-N-(4-Bromo-2,5-dimethoxyphenethyl)chroman-4-amine Hydrochloride] | 174 nM and 168 nM | 108% | 121% | 132 nM and 134 nM | – | – | – | – | – | – | – | – |
| COc1cc(CCNC2COc3ccccc32)c(OC)cc1C#N (racemic) [(±)-6f, (±)-4-(2-((2,3-Dihydrobenzofuran-3-yl)amino)ethyl)-2,5-dimethoxybenzonitrile Hydrochloride] | 631 nM and 608 nM | 76.0% | 82.9% | 108 nM | ~10 fold | 90.8 [81.9–101] % and 118% | 1020 nM and 1030 nM | 0.486 | 1.010 | 2.6 fold | 1650 nM | Alternative β-factor [5]: 1.420 and 0.711; Bias judged from the bias plot, relative to LSD [5]: highly biased for βarr2 recruitment; Bias judged from the bias plot, relative to serotonin [5]: strong preference toward βarr2 recruitment; Difference in potency between the β-arr2 and miniGαq assays [5]: 6 fold |
| COc1cc(CCNCc2cccc(O)c2)c(OC)cc1Br [4a, 3-(((4-Bromo-2,5-dimethoxyphenethyl)amino)methyl)phenol Hydrochloride] | 48.8 nM and 46.9 nM | 98.9% | 112% | 11.1 nM | approximately 15 fold | 89.8 [75.8–108] % and 110% | 172 nM and 175 nM | 0.096 | 0.566 | ~3 fold | 154 nM and 156 nM | miniGαq Emax (%) [CI] [7]: 36.8%; Emax [7]: 21% |
| COc1cccc(CNCCc2cc(OC)c(Br)cc2OC)c1 [4b, 2-(4-Bromo-2,5-dimethoxyphenyl)-N-(3-methoxybenzyl)ethan-1-amine Hydrochloride] | 44.4 nM and 43.3 nM | 100% | 113% | 11.1 nM | 7 fold | 106 [97.5–114] % and 130% | 81.9 nM and 80.4 nM | 0.043 | 0.494 | – | 112 nM | β-factor ([4]; relative to LSD): 0.565; β-factor ([4]; relative to serotonin (5-HT)): 0.102; EC50 [7]: 118 nM; miniGαq Emax (%) [CI] [7]: 44.7 [36.9–53.9] % and 81.0% |
| NCCc1c[nH]c2ccc(O)cc12 [5-HT, serotonin, reference compound] | – | – | – | – | – | – | – | – | – | 13 fold | – | Drop in efficacy in the S159A-mutated 5-HT2AR, β-arr2 [3]: 33%; β-factor ([4]; relative to LSD): 0.550; β-factor ([4]; relative to serotonin (5-HT)): 0; Change of efficacy with the S159A mutation, Gαq-dissociation BRET assay [8]: remained roughly unchanged; Decrease in potency with the S159A mutation, Gαq-dissociation BRET assay [8]: 157 fold; Drop in efficacy in the S159A-mutated 5-HT2AR, miniGαq [6]: 173% |
| COc1cc(CCNCc2ccccc2OC)c(OC)cc1C#N [6b, 2,5-Dimethoxy-4-(2-((2-methoxybenzyl)amino)ethyl)benzonitrile Hydrochloride] | 6.7 nM and 6.71 nM and 6.53 nM | 148% | 161% | 1.9 nM and 1.93 nM and 1.94 nM | – | – | – | – | – | – | – | – |
| COc1cc(CCNCc2ccccc2F)c(OC)cc1C#N [6c, 4-(2-((2-Fluorobenzyl)amino)ethyl)-2,5-dimethoxybenzonitrile Hydrochloride] | 168 nM and 164 nM | 105% | 114% | 53.2 nM and 53.3 nM | 12 fold | 86.6 [81.5–92.0] % and 113% | 661 nM and 645 nM | 0.237 | 0.842 | 7 fold | 1130 nM | β-factor ([4]; relative to LSD): 0.731; β-factor ([4]; relative to serotonin (5-HT)): 0.186; EC50 [7]: 899 nM |
| COc1cc(CCNCc2cccc3c2OCO3)c(OC)cc1C#N [6d, 4-(2-((Benzo[d][1,3]dioxol-4-ylmethyl)amino)ethyl)-2,5-dimethoxybenzonitrile Hydrochloride] | 45.1 nM and 47.3 nM | 106% | 114% | 17 nM and 17.1 nM | – | – | – | – | – | – | – | – |
| COc1cc(CCNCc2cccc(O)c2)c(OC)cc1C#N [6e, 4-(2-((3-Hydroxybenzyl)amino)ethyl)-2,5-dimethoxybenzonitrile Hydrochloride] | 301 nM and 299 nM | 97.5% | 106% | 84.5 nM | ~10 fold | 84.1% | 939 nM and 938 nM | 0.577 | 1.050 | 6.9 fold | 2060 nM | Emax ([3]; read-out: β-arr2 Emax (%) [CI]): 68.2%; miniGαq Emax (%) [CI] [7]: 22.9%; Emax [7]: 12.9% |
| COc1cc(CCNCc2ccccc2O)c(OC)cc1I [25I-NBOH] | – | – | – | – | – | – | – | – | – | – | – | Emax, miniGαq assay [9]: 111–160%; Emax, βarr2 assay [10]: 135–141% |
| COc1cc(CCNCc2ccccc2OC)c(OC)cc1I [25I-NBOMe] | – | – | – | – | – | – | – | – | – | – | – | Emax, miniGαq assay [9]: 111–160%; Emax, βarr2 assay [10]: 135–141% |
| COc1cc(CC2CCCC(c3ccccc3OC)N2)c(OC)cc1Br [(S,S)-DMBMPP] | – | – | – | – | – | – | – | – | – | – | – | Selectivity over 5-HT2CR [11]: 124 fold |
| COc1ccccc1CCCN1CC[C@H]2[C@@H](C1)c1cccc3c1N2CCN3C [IHCH-7086] | – | – | – | – | – | – | – | – | – | – | – | Emax [12]: 13% |
| CCN(CC)C(=O)[C@@H]1C=C2c3cccc4[nH]cc(c34)C[C@H]2N(C)C1 [LSD, lysergic acid diethylamide, reference compound] | – | 90.7% | 99.7% | – | – | 99.9 [93.7–106] % and 128% | – | – | – | – | – | β-factor ([4]; relative to LSD): 0; β-factor ([4]; relative to serotonin (5-HT)): -0.533 |
